Details: for molar entropy: 101.33 kPa, Vacuum adiabatic calorimetry

CC(C)(C)Cc1ccccc1 [(2,2-dimethylpropyl)benzene]
Details | Triple point temperature [K] | molar entropy [J/K/mol]
5 K, Crystal | – | 0.1197
10 K, Crystal | – | 0.956
15 K, Crystal | – | 3.026
20 K, Crystal | – | 6.298
25 K, Crystal | – | 10.58
30 K, Crystal | – | 15.48
35 K, Crystal | – | 20.64
40 K, Crystal | – | 25.96
45 K, Crystal | – | 31.32
50 K, Crystal | – | 36.64
60 K, Crystal | – | 46.98
70 K, Crystal | – | 57.07
80 K, Crystal | – | 66.82
90 K, Crystal | – | 76.28
100 K, Crystal | – | 85.56
110 K, Crystal | – | 94.62
120 K, Crystal | – | 103.5
130 K, Crystal | – | 112.2
140 K, Crystal | – | 120.9
150 K, Crystal | – | 129.4
160 K, Crystal | – | 137.8
170 K, Crystal | – | 146.1
180 K, Crystal | – | 154.2
190 K, Crystal | – | 162.5
200 K, Crystal | – | 170.5
210 K, Crystal | – | 178.6
220 K, Crystal | – | 186.7
230 K, Crystal | – | 194.6
240 K, Crystal | – | 202.5
250 K, Crystal | – | 210.4
255.43 K, Crystal | – | 214.7
255.43 K, Liquid | – | 274.9
260 K, Liquid | – | 279.4
270 K, Liquid | – | 288.9
280 K, Liquid | – | 298.4
290 K, Liquid | – | 307.7
298.15 K, Liquid | – | 315.2
300 K, Liquid | – | 316.9
310 K, Liquid | – | 325.8
320 K, Liquid | – | 334.7
330 K, Liquid | – | 343.4
340 K, Liquid | – | 351.9
350 K, Liquid | – | 360.4
Crystal, Adiabatic calorimetry | 255.43 | –
